# According to patent publication US5017619A, “Phenethanolamine derivatives” (Hoffmann-La Roche Inc., priority 1985, dated 1991):
# Read-outs that look alike come from different tables or passages of the source.
# Columns and labels:
# [1] = tested on: male albino rats; assay: Activity on oxygen consumption; assay type: in vivo; settings: rat, per os, corrected for placebo group; for response vs control in vivo at 1 µM, 1 µmol/kg / response vs control in vivo at 0.3 µM, 0.3 µmol/kg / response vs control in vivo at 3 µM, 3 µmol/kg: po; for response vs control in vivo at 1 µM, 1 µmol/kg: 1 μM/kg; for response vs control in vivo at 3 µM, 3 µmol/kg: 3 μM/kg
# Procedure: (1) Activity on oxygen consumption
# Male albino rats weighing 160-180 g were placed in metabolic cages after fasting for 24 hours. The cages were ventilated with a constant 6 liter room air/minute which was equilibrated at a dew point of 11° C. Samples of the spent air were collected during periods of in each case 14 minutes after again equilbrating and the oxygen content and CO2 content were analyzed. After an adaptation time of 4 hours the animals, divided into groups of 6, received either placebo (5% gum arabic) or the test substance (suspended in 5% gum arabic) per os. Thereafter, the determinations were carried out for a period of 12 hours. In Table I there is given the percentage of the average oxygen consumption after medication during the first 3 hours and the entire test duration (12 hours) of the oxygen consumption of the adaptation period, corresponding corrections for variations in the placebo group having been taken into consideration.
# [2] = tested on: female hyperglycaemic fat mice; assay: Activity on urine glucose and blood glucose and the formation of brown adipose tissue (obese-hyperglycaemic mice); assay type: in vivo; settings: oral, percentage of control value; for Blood glucose / Brown adipose tissue (weight of interscapular brown adipose tissue): end of 15-day test
# Procedure: (2) Activity on urine glucose and blood glucose and the formation of brown adipose tissue
# Female hyperglycaemic fat mice were adapted to an amount of feed limited to 3 g/day/animal. The test compounds (suspended in 5% gum arabic) or placebo (5% gum arabic) were administered orally twice daily during 15 days. Urine was collected for 6 days a week and urine glucose was determined. Blood glucose and the weight of the interscapular brown adipose tissue were determined at the end of the test.
# The test results are given in Table II as a percentage of the control value.
# [3] = tested on: streptozotocin-diabetic rats; assay: Activity on the urine glucose of streptozotocin-diabetic rats; assay type: in vivo, albino rats; settings: oral, 90 μM/kg per day, 2nd week of treatment
# Procedure: (3) Activity on the urine glucose of streptozotocin-diabetic rats
# A diabetes was produced in female albino rats (weight 130-140 g) by the subcutaneous injection of streptozotocin (70 mg/kg). The diabetic animals were adapted to an amount of feed limited to 15 g/day/animal. The test compound (suspended in 5% gum arabic) or placebo (5% gum arabic) was administered orally twice daily. The urine was collected for 6 days a week and urine glucose was determined. The urine glucose excretion of the treated animals during the 2nd week of treatment is given in Table III as a percentage of the control value.
# [4] = 3 h, 1st-3rd hour, read-out: O2 consumption, % of value of the pre-period, 1st-3rd hour
# [5] = 12 h, 1st-12th hour, read-out: O2 consumption, % of value of the pre-period, 1st-12th hour
# [6] = 3 h, 0.3 μM/kg, 1st-3rd hour, read-out: O2 consumption, % of value of the pre-period, 1st-3rd hour
# [7] = 12 h, 0.3 μM/kg, 1st-12th hour, read-out: O2 consumption, % of value of the pre-period, 1st-12th hour
structure (smiles),measurement,setting,value
"C[C@H](Cc1ccc(OCCOCCc2ccccc2)cc1)N(C[C@H](O)c1ccccc1)C[C@H](O)c1ccccc1 [Example 1, α,α'-[[[(R)-α-methyl-p-[2-(phenethoxy)ethoxy]phenethyl]imino]dimethylene]di-(R)-benzyl alcohol]","response vs control in vivo at 1 µM, 1 µmol/kg",[1]; [4],147%
same,"response vs control in vivo at 1 µM, 1 µmol/kg",[1]; [5],117%
"CCOCCOc1ccc(C[C@@H](C)N(C[C@H](O)c2ccccc2)C[C@H](O)c2ccccc2)cc1 [Example 2a, α,α'-[[[(R)-p-(2-ethoxyethoxy)-α-methylphenethyl]imino]dimethylene]di-(R)-benzyl alcohol]","response vs control in vivo at 0.3 µM, 0.3 µmol/kg",[1]; [6],152%
same,"response vs control in vivo at 0.3 µM, 0.3 µmol/kg",[1]; [7],114%
COCCOCCOc1ccc(C[C@@H](C)N(C[C@H](O)c2ccccc2)C[C@H](O)c2ccccc2)cc1 [Example 2b],"response vs control in vivo at 1 µM, 1 µmol/kg",[1]; [4],166%
same,"response vs control in vivo at 1 µM, 1 µmol/kg",[1]; [5],119%
C[C@H](Cc1ccc(OCCOCCc2ccc(F)cc2)cc1)N(C[C@H](O)c1ccccc1)C[C@H](O)c1ccccc1 [Example 2c],"response vs control in vivo at 1 µM, 1 µmol/kg",[1]; [4],167%
same,"response vs control in vivo at 1 µM, 1 µmol/kg",[1]; [5],122%
"C[C@H](Cc1ccc(OCCOCc2ccc(Oc3ccccc3)cc2)cc1)N(C[C@H](O)c1ccccc1)C[C@H](O)c1ccccc1 [Example 2e, α,α'-[[[(R)-α-methyl-p-[2-[(p-phenoxybenzyl)oxy]ethoxy]phenethyl]imino]dimethylene]di-(R)-benzyl alcohol]","response vs control in vivo at 1 µM, 1 µmol/kg",[1]; [4],145%
same,"response vs control in vivo at 1 µM, 1 µmol/kg",[1]; [5],116%
"CCOCCOc1ccc(CCN(C[C@H](O)c2ccccc2)C[C@H](O)c2ccccc2)cc1 [Example 2f, α,α'-[[[p-(2-ethoxyethoxy)phenethyl]imino]dimethylene]di-(R)-benzyl alcohol]",Urine glucose 1st week,[2]; 9 μM/Kg per day,43%
same,Urine glucose 2nd week,[2]; 9 μM/Kg per day,33%
same,Blood glucose,[2]; 9 μM/Kg per day,51%
same,Brown adipose tissue (weight of interscapular brown adipose tissue),[2]; 9 μM/Kg per day,158%
same,Urine glucose 1st week,[2]; 90 μM/Kg per day,4.8%
same,Urine glucose 2nd week,[2]; 90 μM/Kg per day,0.3%
same,Blood glucose,[2]; 90 μM/Kg per day,34%
same,Brown adipose tissue (weight of interscapular brown adipose tissue),[2]; 90 μM/Kg per day,163%
same,"response vs control in vivo at 1 µM, 1 µmol/kg",[1]; [4],142%
same,"response vs control in vivo at 1 µM, 1 µmol/kg",[1]; [5],112%
"C[C@H](Cc1ccc(OCCOCCc2ccccc2)cc1)N(C[C@H](O)c1cccc(Cl)c1)C[C@H](O)c1cccc(Cl)c1 [Example 2g1, α,α'-[[[(R)-α-methyl-p-[2-(phenethoxy)ethoxy]phenethyl]imino]dimethylene]bis[(R)-m-chlorobenzyl alcohol]]","response vs control in vivo at 0.3 µM, 0.3 µmol/kg",[1]; [6],137%
same,"response vs control in vivo at 0.3 µM, 0.3 µmol/kg",[1]; [7],117%
"CC(Cc1ccc(OCCOCCc2ccccc2)cc1)N(CC(O)c1cccc(Cl)c1)CC(O)c1cccc(Cl)c1 [Example 2g2, (R)-m-chloro-α-[[[(S)-m-chloro-β-hydroxyphenethyl][(R)-α-methyl-p-[2-phenethoxy)ethoxy]phenethyl]amino]-methyl]benzyl alcohol]]",Urine glucose 1st week,[2]; 3 μM/Kg per day,17.7%
same,Urine glucose 2nd week,[2]; 3 μM/Kg per day,2.4%
same,Blood glucose,[2]; 3 μM/Kg per day,38%
same,Brown adipose tissue (weight of interscapular brown adipose tissue),[2]; 3 μM/Kg per day,157%
same,Urine glucose 1st week,[2]; 30 μM/Kg per day,1.6%
same,Urine glucose 2nd week,[2]; 30 μM/Kg per day,0.6%
same,Blood glucose,[2]; 30 μM/Kg per day,33%
same,Brown adipose tissue (weight of interscapular brown adipose tissue),[2]; 30 μM/Kg per day,144%
same,"response vs control in vivo at 1 µM, 1 µmol/kg",[1]; [4],163%
same,"response vs control in vivo at 1 µM, 1 µmol/kg",[1]; [5],131%
same,"Urine glucose 2nd week, % of controls",[3],68%
C[C@H](Cc1ccc(OCCOCCc2ccccc2)cc1)N(C[C@@H](O)c1cccc(Cl)c1)C[C@@H](O)c1cccc(Cl)c1 [Example 2g3],"response vs control in vivo at 3 µM, 3 µmol/kg",[1]; [4],138%
same,"response vs control in vivo at 3 µM, 3 µmol/kg",[1]; [5],119%
COC(=O)C=CCOc1ccc(C[C@@H](C)N(C[C@H](O)c2ccccc2)C[C@H](O)c2ccccc2)cc1 [Example 4],"O2 consumption, % of value of the pre-period, 1st-3rd hour","[1]; 0.3 μM/kg, 1st-3rd hour",123%
same,"O2 consumption, % of value of the pre-period, 1st-12th hour","[1]; 0.3 μM/kg, 1st-12th hour",110%
"CCOCCOc1ccc(CCN(C[C@H](O)c2cccc(Cl)c2)C[C@H](O)c2cccc(Cl)c2)cc1 [Example 8d, α,α'-[[[p-(2-ethoxyethoxy)phenethyl]imino]dimethylene]bis[(R)-m-chlorobenzyl alcohol]]","response vs control in vivo at 3 µM, 3 µmol/kg",[1]; [4],172%
same,"response vs control in vivo at 3 µM, 3 µmol/kg",[1]; [5],147%
"CCOCCOc1ccc(C[C@@H](C)N(C[C@H](O)c2ccccc2)C[C@H](O)c2cccc(Cl)c2)cc1 [Example 10a1, 3-chloro-α,α'-[[[(R)-p-(2-ethoxyethoxy)-α-methylphenethyl]imino]dimethylene]di-(R)-benzyl alcohol]","response vs control in vivo at 0.3 µM, 0.3 µmol/kg",[1]; [6],154%
same,"response vs control in vivo at 0.3 µM, 0.3 µmol/kg",[1]; [7],117%
"CCOCCOc1ccc(C[C@@H](C)N(C[C@@H](O)c2cccc(Cl)c2)C[C@H](O)c2ccccc2)cc1 [Example 10a2, (S)-m-chloro-α-[[[(R)-p-(2-ethoxyethoxy)-α-methylphenethyl][(R)-β-hydroxyphenethyl]amino]methyl]benzyl alcohol]","response vs control in vivo at 3 µM, 3 µmol/kg",[1]; [4],183%
same,"response vs control in vivo at 3 µM, 3 µmol/kg",[1]; [5],141%
"CCOCCOc1ccc(CCN(C[C@@H](O)c2cccc(Cl)c2)C[C@H](O)c2cccc(Cl)c2)cc1 [Example 11, (R)-m-chloro-α-[[[(S)-m-chloro-β-hydroxyphenethyl][p-(2-ethoxyethoxy)phenethyl]amino]methyl]benzyl alcohol]","response vs control in vivo at 3 µM, 3 µmol/kg",[1]; [4],181%
same,"response vs control in vivo at 3 µM, 3 µmol/kg",[1]; [5],140%
"O[C@H](CN(CCc1ccc(OCCOCCc2ccccc2)cc1)C[C@H](O)c1cccc(Cl)c1)c1cccc(Cl)c1 [Example 12a, (R)-m-chloro-α-[[[(S)-m-chloro-β-hydroxyphenethyl]-[p-[2-(phenethoxy)ethoxy]phenethyl]amino]methyl]benzyl alcohol]","response vs control in vivo at 1 µM, 1 µmol/kg",[1]; [4],143%
same,"response vs control in vivo at 1 µM, 1 µmol/kg",[1]; [5],116%
